Experiments:
[1] = Hydrolysis of LPV esters in vivo in rats
Procedure: (§1) NMR spectroscopy was performed on the compounds including GLPV (FIG. 14A). […] An LC-MS/MS assay was developed and validated to determine concentrations of the novel compounds in biological matrices and fluids, as shown in FIG. 14B.

[2] = tested on: fresh human placental villous tissue; assay: Incubation of DGLPV with fresh human placental villous tissue (HPLC of medium and tissue); type: in vitro ADME
Procedure: DGLPV was synthesized as described above. The amount of DGLPV in the media originally containing 100 uM DGLPV was measured using HPLC as described above, and again after a 30 minute incubation with fresh human placental villous tissue in the same media.
To confirm that the DGLPV was taken up by the tissue and hydrolyzed therein, HPLC was used to measure the amount of free LPV present in the tissue.

BeWo cells [3] = assay: Uptake of non-radiolabelled LPV esters in BeWo cells (LC-MS/MS); type: cell-based, human; settings: for Rank order of uptake: non-radiolabelled esters
Procedure: as §1

plasma esterases = assay: Stability in human plasma; type: in vitro ADME
Procedure: The stability of SLPV was determined by incubating SLPV (20 μM) in human plasma from one healthy adult at 37° C. for 18 hours.

BeWo cells [4] = assay: Uptake of 3H-lopinavir, 3H-succinyl-lopinavir and 3H-carnitine-succinyl-lopinavir by BeWo cells, with and without transport inhibitors; settings: for inhibition at 100 µM / inhibition at 250 µM: Homo sapiens, BeWo, read-out: Extent of Uptake Inhibition
Procedure: FIG. 10. […] BeWo cells (passage 38) were incubated with the compounds for 10 minutes at 37° C. or 4° C. in Dulbecco's phosphate buffered saline containing 0.05% bovine serum albumin. After incubation, the cells were washed with the cold buffer (lacking the compounds), and compounds were extracted from the cells into methanol followed by liquid scintillation analysis.
Specifically, bromosulfophthalein (BSP) is an inhibitor of several organic anion transporters (OATs; gene family SLC22A), as well as organic anion transporting polypeptides (OATPs; gene family SLCO). […] Finally, taurocholate is a classic substrate for bile salt transporters, including the sodium-dependent taurocholate transporter (NTCP; SLC10A1), the apical bile salt transporter (ASBT; SLC10A2), and certain OATPs.
The BeWo cell line is originally derived from a human choriocarcinoma. The BeWo cell line (Schwartz clone; passage 30) was a gift. BeWo cells in these studies is used between passages 30-70. BeWo cells are cultured in high glucose Dulbecco's modified Eagle's medium (DMEM) supplemented with 10% heat inactivated fetal bovine serum (FBS).

[5] = tested on: human primary cytotrophoblast cells; assay: Uptake of 3H-SLPV and 3H-LPV by primary cytotrophoblast cells; type: cell-based
Excerpt: We also isolated primary cytotrophoblast cells from one term (39 weeks gestation) placenta delivered by cesarean section. […] (FIG. 7).

P-glycoprotein = settings: mice; cited from earlier work

Q: Which results are given for `Cc1cccc(C)c1OCC(=O)NC(Cc1ccccc1)[C@H](CC(Cc1ccccc1)NC(=O)[C@H](C(C)C)N1CCCNC1=O)OC(=O)COCC(=O)O` (some centres unmarked) [DGLPV, Diglycolic-Lopinavir]?
A: Hydrolysis in vivo, in words [1]: capable of being hydrolyzed in vivo; Amount of DGLPV in the medium after incubation with tissue ([2]; 100 uM DGLPV, 30 minute incubation): decrease in DGLPV in the medium; Hydrolysis in the tissue to release free lopinavir, in words ([2]; human placental villous tissue): can also be hydrolyzed in the tissue; Transport into human tissues, in words ([2]; human placental villous tissue): can also be transported into human tissues; Temperature dependence of uptake, in words (BeWo cells [3]): temperature dependent; Rank order of uptake (BeWo cells [3]): GLPV>SLPV>DGLPV; half-life (plasma esterases; human, plasma, preliminary data, read-out: Plasma hydrolysis half-life (converted)): ~2 h

Q: Which “Extent of Uptake Inhibition” value (BeWo cells [4]; Cold (4° C.), BeWo cells) does the source give for `Cc1cccc(C)c1OCC(=O)N[C@@H](Cc1ccccc1)[C@@H](O)C[C@H](Cc1ccccc1)NC(=O)[C@H](C(C)C)N1CCCNC1=O` [LPV, lopinavir, reference compound] here?
A: 10%

Q: What about the inhibition at 100 µM (BeWo cells [4]) of the same compound?
A: 9%

Q: And the inhibition at 250 µM (BeWo cells [4])?
A: 7%

Q: For `Cc1cccc(C)c1OCC(=O)NC(Cc1ccccc1)C(CC(Cc1ccccc1)NC(=O)C(C(C)C)N1CCCNC1=O)OC(=O)CCC(=O)O` (centres unmarked) [SLPV, Succinyl-lopinavir], which “Reduction of uptake in the presence of linoleic acid” value (BeWo cells [4]; 40 μM linoleic acid (LA), BeWo cells, p<0.05) is on record?
A: 34%

Q: Which results are given for `Cc1cccc(C)c1OCC(=O)NC(Cc1ccccc1)[C@H](CC(Cc1ccccc1)NC(=O)[C@H](C(C)C)N1CCCNC1=O)OC(=O)CCC(=O)O` (some centres unmarked) [SLPV, Succinyl-lopinavir]?
A: Effect of ABC transporter inhibitor MK571 on uptake, in words (BeWo cells [4]): slight increase in uptake; Effect of arachidonic acid on uptake, in words (BeWo cells [4]): no effect; Temperature dependence of uptake, in words (BeWo cells [4]): inhibited at reduced temperatures; Extent of Uptake Inhibition (BeWo cells [4]; Cold (4° C.), BeWo cells): 62%; inhibition at 100 µM (BeWo cells [4]): -1%; inhibition at 250 µM (BeWo cells [4]): 7%; Temperature dependence of uptake, in words (BeWo cells [4]; human, 10 minutes): significantly less than at 37 °C; Extent of Uptake Inhibition (BeWo cells [4]; linoleic acid (40 mM), BeWo cells): 40%; Extent of Uptake Inhibition (BeWo cells [4]; valproic acid (1 mM), BeWo cells): 5%; Temperature dependence of uptake, in words ([5]; 4° C. vs 37° C., cytotrophoblasts): temperature-dependent; Uptake relative to uptake of LPV ([5]; human placental cytotrophoblasts, 37° C., after 24 hrs in culture): 10 fold; Temperature dependence of uptake, in words (BeWo cells [3]): temperature dependent; Rank order of uptake (BeWo cells [3]): GLPV>SLPV>DGLPV; Stability in human plasma, in words (plasma esterases; 20 μM, human plasma from one healthy adult, 37° C., 18 hours): completely stable to plasma esterases

Q: With `CC(=O)O[C@H]1C(=O)[C@@]2(C)[C@H]([C@H](OC(=O)c3ccccc3)[C@]3(O)C[C@H](OC(=O)[C@H](O)[C@@H](NC(=O)c4ccccc4)c4ccccc4)C(C)=C1C3(C)C)[C@]1(OC(C)=O)CO[C@@H]1C[C@@H]2O` [paclitaxel] as the compound, how does the “Fold more drug entering P-glycoprotein deficient Abcb1a−/−/1b−/− fetuses than wild type fetuses” value (P-glycoprotein) read?
A: 16 fold

Source: patent US20130267547A1, “PRODRUGS UTILIZING A TRANSPORTER-DIRECTED UPTAKE MECHANISM” (VIRGINIA COMMONWEALTH UNIVERSITY, priority 2010, published 2013)
